Data: ChEMBL document CHEMBL1201862, “PubChem BioAssay data set” (2004)
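These data come from cells grown in 96-well plates and exposed to compound for 48 hours at five concentrations. At the GI50, growth is halved.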 The source made the active and inactive calls. No stated cut-off is given here; in the data, active = GI50 up to about 1.1 µM and inactive = higher.

What was measured:
Test in all cases: NCI-60 cell line screen, 48 h
[1] = test system: SF-268
[2] = test system: NCI-H23
[3] = test system: ACHN
[4] = test system: SW-620
[5] = test system: IGROV-1
[6] = test system: COLO 205
[7] = test system: MDA-MB-435
[8] = test system: UACC-257
[9] = test system: MDA-N
[10] = test system: SNB-19
[11] = test system: SF-539
[12] = test system: SK-MEL-5
[13] = test system: M14
[14] = test system: RXF 393
[15] = test system: PC-3
[16] = test system: DU-145
[17] = test system: Hs-578T
[18] = test system: UO-31
[19] = test system: HL-60
[20] = test system: RPMI-8226
[21] = test system: LOX IMVI
[22] = test system: SK-OV-3
[23] = test system: SR
[24] = test system: NCI-H522
[25] = test system: TK-10
[26] = test system: HCC 2998
[27] = test system: HCT-116
[28] = test system: UACC-62
[29] = test system: OVCAR-3
[30] = test system: U-251
[31] = test system: A498
[32] = test system: OVCAR-8
[33] = test system: BT-549
[34] = test system: NCI-H460
[35] = test system: HOP-92
[36] = test system: HOP-62
[37] = test system: CAKI-1
[38] = test system: OVCAR-4
[39] = test system: HT-29
[40] = test system: K562
[41] = test system: SK-MEL-28
[42] = test system: MDA-MB-231
[43] = test system: Malme-3M
[44] = test system: A549
[45] = test system: CCRF-CEM
[46] = test system: HCT-15
[47] = test system: SNB-75
[48] = test system: OVCAR-5
[49] = test system: NCI-H226
[50] = test system: SF-295
[51] = test system: MOLT-4
[52] = test system: EKVX
[53] = test system: 786-0
[54] = test system: KM12
[55] = test system: SN12C
[56] = test system: MCF7
[57] = test system: T47D
[58] = test system: SK-MEL-2
[59] = test system: NCI/ADR-RES

## C=C(C)C(=O)O[C@@H]1C/C(C)=C\[C@H](OC(C)=O)C[C@](C)(O)/C=C2/OC(=O)C(COC(C)=O)=C21
[1]
  GI50: 0.668 µM (active)
[2]
  GI50: 1.77 µM (inactive)
[3]
  GI50: 0.556 µM (active)
[4]
  GI50: 0.216 µM (active)
[5]
  GI50: 0.834 µM (active)
[6]
  GI50: 0.238 µM (active)
[7]
  GI50: 0.845 µM (active)
[8]
  GI50: 1.69 µM (inactive)
[9]
  GI50: 0.467 µM (active)
[10]
  GI50: 12.3 µM (inactive)
[11]
  GI50: 1.28 µM (inactive)
[12]
  GI50: 1.09 µM (active)
[13]
  GI50: 0.673 µM (active)
[14]
  GI50: 0.304 µM (active)
[15]
  GI50: 1.61 µM (inactive)
[16]
  GI50: 2.37 µM (inactive)
[17]
  GI50: 2.15 µM (inactive)
[18]
  GI50: 1.63 µM (inactive)
[19]
  GI50: 0.013 µM (active)
[20]
  GI50: 0.314 µM (active)
[21]
  GI50: 0.152 µM (active)
[22]
  GI50: 6.12 µM (inactive)
[23]
  GI50: 0.0423 µM (active)
[24]
  GI50: 0.196 µM (active)
[25]
  GI50: 1.5 µM (inactive)
[26]
  GI50: 0.399 µM (active)
[27]
  GI50: 0.394 µM (active)
[28]
  GI50: 0.692 µM (active)
[29]
  GI50: 0.726 µM (active)
[30]
  GI50: 1.09 µM (active)
[31]
  GI50: 3.34 µM (inactive)
[32]
  GI50: 0.69 µM (active)
[33]
  GI50: 1.37 µM (inactive)
[34]
  GI50: 0.695 µM (active)
[35]
  GI50: 0.437 µM (active)
[36]
  GI50: 5.66 µM (inactive)
[37]
  GI50: 0.329 µM (active)
[38]
  GI50: 1.93 µM (inactive)
[39]
  GI50: 0.237 µM (active)
[40]
  GI50: 0.122 µM (active)
[41]
  GI50: 0.251 µM (active)
[42]
  GI50: 0.662 µM (active)
[43]
  GI50: 0.274 µM (active)
[44]
  GI50: 2.95 µM (inactive)
[45]
  GI50: 0.0649 µM (active)
[46]
  GI50: 0.212 µM
[47]
  GI50: 3.93 µM (inactive)
[48]
  GI50: 1.99 µM (inactive)
[49]
  GI50: 1.91 µM (inactive)
[50]
  GI50: 6.76 µM (inactive)
[51]
  GI50: 0.428 µM (active)
[52]
  GI50: 0.962 µM (active)
[53]
  GI50: 1.09 µM (active)
[54]
  GI50: 6.32 µM (inactive)
[55]
  GI50: 0.783 µM (active)
[56]
  GI50: 1.05 µM (active)
[57]
  GI50: 0.834 µM (active)
[58]
  GI50: 2.87 µM (inactive)

## O=C(O)CCCc1ccc2c(c1)C(C(=O)O)CC2 (stereo not given)
[1]
  GI50: > 100 µM (inactive)
[2]
  GI50: > 100 µM (inactive)
[3]
  GI50: > 100 µM (inactive)
[4]
  GI50: > 100 µM (inactive)
[5]
  GI50: > 100 µM (inactive)
[6]
  GI50: > 100 µM (inactive)
[8]
  GI50: > 100 µM (inactive)
[9]
  GI50: > 100 µM (inactive)
[10]
  GI50: > 100 µM (inactive)
[11]
  GI50: > 100 µM (inactive)
[12]
  GI50: > 100 µM (inactive)
[13]
  GI50: > 100 µM (inactive)
[14]
  GI50: > 100 µM (inactive)
[15]
  GI50: > 100 µM (inactive)
[16]
  GI50: > 100 µM (inactive)
[17]
  GI50: > 100 µM (inactive)
[18]
  GI50: > 100 µM (inactive)
[19]
  GI50: > 100 µM (inactive)
[20]
  GI50: > 100 µM (inactive)
[21]
  GI50: > 100 µM (inactive)
[22]
  GI50: > 100 µM (inactive)
[23]
  GI50: > 100 µM (inactive)
[24]
  GI50: > 100 µM (inactive)
[25]
  GI50: > 100 µM (inactive)
[26]
  GI50: > 100 µM (inactive)
[27]
  GI50: > 100 µM (inactive)
[28]
  GI50: > 100 µM (inactive)
[30]
  GI50: > 100 µM (inactive)
[32]
  GI50: > 100 µM (inactive)
[33]
  GI50: 76 µM (inactive)
[34]
  GI50: > 100 µM (inactive)
[36]
  GI50: > 100 µM (inactive)
[37]
  GI50: > 100 µM (inactive)
[38]
  GI50: > 100 µM (inactive)
[39]
  GI50: > 100 µM (inactive)
[40]
  GI50: > 100 µM (inactive)
[41]
  GI50: > 100 µM (inactive)
[42]
  GI50: > 100 µM (inactive)
[43]
  GI50: > 100 µM (inactive)
[44]
  GI50: > 100 µM (inactive)
[45]
  GI50: > 100 µM (inactive)
[46]
  GI50: > 100 µM
[47]
  GI50: > 100 µM (inactive)
[48]
  GI50: > 100 µM (inactive)
[59]
  GI50: > 100 µM (inactive)
[49]
  GI50: > 100 µM (inactive)
[50]
  GI50: > 100 µM (inactive)
[51]
  GI50: > 100 µM (inactive)
[52]
  GI50: > 100 µM (inactive)
[53]
  GI50: > 100 µM (inactive)
[54]
  GI50: > 100 µM (inactive)
[55]
  GI50: > 100 µM (inactive)
[56]
  GI50: > 100 µM (inactive)
[57]
  GI50: > 100 µM (inactive)
[58]
  GI50: > 100 µM (inactive)

## CC1(c2ccc(Cl)s2)CC(c2ccc(Cl)s2)=C(C#N)C(=C(C#N)C#N)N1 (stereo not given)
[1]
  GI50: 20.7 µM (inactive)
[2]
  GI50: 21.2 µM (inactive)
[3]
  GI50: 17.5 µM (inactive)
[4]
  GI50: 13.9 µM (inactive)
[5]
  GI50: 19.9 µM (inactive)
[6]
  GI50: 19.9 µM (inactive)
[7]
  GI50: 18.4 µM (inactive)
[8]
  GI50: 21.9 µM (inactive)
[9]
  GI50: 22.4 µM (inactive)
[10]
  GI50: 20.8 µM (inactive)
[11]
  GI50: 26.3 µM (inactive)
[12]
  GI50: 15.2 µM (inactive)
[13]
  GI50: 19.4 µM (inactive)
[14]
  GI50: 16.9 µM (inactive)
[15]
  GI50: 17.6 µM (inactive)
[16]
  GI50: 16.9 µM (inactive)
[17]
  GI50: 29.5 µM (inactive)
[18]
  GI50: 18.7 µM (inactive)
[19]
  GI50: 16.7 µM (inactive)
[20]
  GI50: 32 µM (inactive)
[21]
  GI50: 22.3 µM (inactive)
[22]
  GI50: 16.9 µM (inactive)
[25]
  GI50: 22.4 µM (inactive)
[26]
  GI50: 18.9 µM (inactive)
[27]
  GI50: 17.3 µM (inactive)
[28]
  GI50: 15.8 µM (inactive)
[29]
  GI50: 15 µM (inactive)
[30]
  GI50: 17.3 µM (inactive)
[31]
  GI50: 19.4 µM (inactive)
[32]
  GI50: 20.8 µM (inactive)
[33]
  GI50: 20.9 µM (inactive)
[34]
  GI50: 29 µM (inactive)
[35]
  GI50: 15.4 µM (inactive)
[36]
  GI50: 18.8 µM (inactive)
[37]
  GI50: 19.1 µM (inactive)
[38]
  GI50: 16.5 µM (inactive)
[39]
  GI50: 19.2 µM (inactive)
[40]
  GI50: 29.6 µM (inactive)
[41]
  GI50: 19.4 µM (inactive)
[42]
  GI50: 23.2 µM (inactive)
[43]
  GI50: 22.8 µM (inactive)
[44]
  GI50: 22.4 µM (inactive)
[45]
  GI50: 16 µM (inactive)
[46]
  GI50: 17.4 µM
[47]
  GI50: 22.2 µM (inactive)
[48]
  GI50: 19.4 µM (inactive)
[59]
  GI50: 19.3 µM (inactive)
[49]
  GI50: 26.9 µM (inactive)
[50]
  GI50: 15 µM (inactive)
[51]
  GI50: 28.1 µM (inactive)
[52]
  GI50: 18.2 µM (inactive)
[53]
  GI50: 19.8 µM (inactive)
[54]
  GI50: 18 µM (inactive)
[55]
  GI50: 21 µM (inactive)
[56]
  GI50: 17.6 µM (inactive)
[57]
  GI50: 18.8 µM (inactive)
[58]
  GI50: 18.6 µM (inactive)
